Data as given in ChEMBL document CHEMBL1201862, “PubChem BioAssay data set” (2004).
One block for each compound: values may come before it. The source made the active and inactive calls.

Experiments:
[1] = HEp-2 cell cytotoxicity, dose response, cytotoxicity control for RSV inhibitor project, HTS (AID 2410); format: functional; details: human respiratory syncytial virus
[2] = tested on: Streptococcus sp. 'group A'; test: growth inhibition of control SK(-) GAS strain, dose response, counter-screen for streptokinase expression inhibitor project, luminescence, kanamycin, BacTiterGlo, confirmation (AID 1900); format: functional, organism-based
[3] = molecular target: T1, Heat shock factor protein 1 (Mus musculus, UniProt P38532); test: inhibition of MG132-induced HSE-luciferase signal, confirmation, cell-based, NIH3T3, luminescence, dose retest (AID 2382); format: functional;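 note: NIH3T3 fibroblasts with HSF1-driven luciferase reporter stressed by proteasome inhibitor MG132; luminescence from HSF1-driven luciferase expression after 8 hours of MG132 stress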
T1 sequence (P38532 whole entry): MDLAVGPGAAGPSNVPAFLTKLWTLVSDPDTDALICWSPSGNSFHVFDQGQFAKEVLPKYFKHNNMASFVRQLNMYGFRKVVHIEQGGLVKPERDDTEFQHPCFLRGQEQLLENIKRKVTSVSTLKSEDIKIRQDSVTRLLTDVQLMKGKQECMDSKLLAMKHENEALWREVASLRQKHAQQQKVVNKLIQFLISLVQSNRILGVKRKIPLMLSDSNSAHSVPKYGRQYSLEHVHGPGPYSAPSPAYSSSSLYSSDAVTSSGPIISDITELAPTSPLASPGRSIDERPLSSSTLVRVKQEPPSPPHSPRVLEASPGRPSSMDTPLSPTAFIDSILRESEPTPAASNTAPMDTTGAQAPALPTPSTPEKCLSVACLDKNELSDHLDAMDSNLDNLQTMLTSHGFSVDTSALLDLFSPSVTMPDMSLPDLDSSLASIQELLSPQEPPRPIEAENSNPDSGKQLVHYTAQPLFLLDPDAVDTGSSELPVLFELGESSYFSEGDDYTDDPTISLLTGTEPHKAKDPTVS

Streptococcus = test: Group A Streptococcus viability loss, dose response, counter-screen for streptokinase expression inhibitor project, luminescence, BacTiterGlo (AID 1915); format: functional, organism-based;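 note: potency for reduction of bacterial viability or growth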
Escherichia coli = test: microbe, parasite or virus in culture
[4] = NIH-3T3 fibroblast cytotoxicity, dose response, cytotoxicity control, cell-based, fluorescence, Alamar Blue, secondary assay (AID 2327); format: functional;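 note: NIH-3T3 mouse fibroblasts cultured with fluconazole at 8 µg/mL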
[5] = C. albicans growth with fluconazole, confirmation, fluorescence, retest (AID 2467); format: functional, cell-based
[6] = molecular target: Glucose-6-phosphate 1-dehydrogenase (Homo sapiens, UniProt P11413); test: human G6PD enzyme inhibitors, dose response, selectivity assay for P. falciparum G6PD inhibitor project, biochemical, fluorescence (AID 504792); format: functional
Bcl-2-related protein A1 = molecular target: T2, Bcl-2-related protein A1 (Mus musculus, UniProt Q07440); format: functional;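 note: confirmatory dose–response counterscreen on Bfl-1, used to check hits from a UBC13 polyubiquitin inhibitor campaign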
T2 sequence (Q07440 whole entry): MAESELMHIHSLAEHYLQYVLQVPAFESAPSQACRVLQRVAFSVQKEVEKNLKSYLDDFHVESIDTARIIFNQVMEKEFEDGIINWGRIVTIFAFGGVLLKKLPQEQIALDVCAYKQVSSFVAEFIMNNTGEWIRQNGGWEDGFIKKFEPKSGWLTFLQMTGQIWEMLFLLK

[7] = molecular target: T3, Ubiquitin-conjugating enzyme E2 N (Homo sapiens, UniProt P61088); format: functional
T3 sequence (P61088 whole entry): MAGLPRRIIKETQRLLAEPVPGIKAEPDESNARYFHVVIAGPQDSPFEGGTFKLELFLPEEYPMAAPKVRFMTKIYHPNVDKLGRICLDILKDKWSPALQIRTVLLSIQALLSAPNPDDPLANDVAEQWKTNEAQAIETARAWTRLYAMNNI

[8] = molecular target: T3, Ubiquitin-conjugating enzyme E2 N; format: functional; remark: listed apart in the source
[9] = molecular target: T4, Apoptotic protease-activating factor 1 (Homo sapiens, UniProt O14727); format: functional
T4 sequence (O14727 whole entry): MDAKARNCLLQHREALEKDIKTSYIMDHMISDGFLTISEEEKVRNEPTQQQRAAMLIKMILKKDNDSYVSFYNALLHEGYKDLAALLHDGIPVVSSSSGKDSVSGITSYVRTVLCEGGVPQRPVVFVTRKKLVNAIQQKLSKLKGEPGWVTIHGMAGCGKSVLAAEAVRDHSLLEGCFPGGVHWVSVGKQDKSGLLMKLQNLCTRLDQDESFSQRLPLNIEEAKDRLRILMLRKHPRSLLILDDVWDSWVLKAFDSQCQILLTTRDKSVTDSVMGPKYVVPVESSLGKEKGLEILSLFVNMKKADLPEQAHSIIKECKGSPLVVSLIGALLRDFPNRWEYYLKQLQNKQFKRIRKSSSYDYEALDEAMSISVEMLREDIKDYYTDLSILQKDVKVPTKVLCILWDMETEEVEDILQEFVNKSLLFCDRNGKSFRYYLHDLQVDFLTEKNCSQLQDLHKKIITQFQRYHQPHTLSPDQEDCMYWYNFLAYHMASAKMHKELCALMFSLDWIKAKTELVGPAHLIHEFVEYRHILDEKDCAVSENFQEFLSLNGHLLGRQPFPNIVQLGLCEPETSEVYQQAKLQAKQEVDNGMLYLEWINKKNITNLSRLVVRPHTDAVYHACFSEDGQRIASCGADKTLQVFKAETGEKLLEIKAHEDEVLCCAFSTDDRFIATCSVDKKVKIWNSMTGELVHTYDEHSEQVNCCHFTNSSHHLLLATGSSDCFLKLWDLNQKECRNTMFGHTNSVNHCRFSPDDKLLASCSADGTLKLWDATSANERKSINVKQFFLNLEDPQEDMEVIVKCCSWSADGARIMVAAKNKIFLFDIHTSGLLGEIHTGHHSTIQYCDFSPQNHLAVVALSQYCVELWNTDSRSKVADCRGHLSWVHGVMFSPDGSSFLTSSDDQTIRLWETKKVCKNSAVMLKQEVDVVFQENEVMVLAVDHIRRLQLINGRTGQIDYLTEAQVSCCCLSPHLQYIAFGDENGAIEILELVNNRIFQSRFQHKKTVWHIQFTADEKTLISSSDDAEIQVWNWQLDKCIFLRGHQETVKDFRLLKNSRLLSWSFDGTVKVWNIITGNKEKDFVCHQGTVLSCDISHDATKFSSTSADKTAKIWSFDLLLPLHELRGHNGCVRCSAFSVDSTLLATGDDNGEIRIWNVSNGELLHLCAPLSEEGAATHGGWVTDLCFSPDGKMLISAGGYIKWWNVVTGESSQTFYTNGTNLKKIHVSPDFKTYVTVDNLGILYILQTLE

Protein skinhead-1 = molecular target: T5, Protein skinhead-1 (Caenorhabditis elegans, UniProt P34707); format: functional
T5 sequence (P34707 whole entry): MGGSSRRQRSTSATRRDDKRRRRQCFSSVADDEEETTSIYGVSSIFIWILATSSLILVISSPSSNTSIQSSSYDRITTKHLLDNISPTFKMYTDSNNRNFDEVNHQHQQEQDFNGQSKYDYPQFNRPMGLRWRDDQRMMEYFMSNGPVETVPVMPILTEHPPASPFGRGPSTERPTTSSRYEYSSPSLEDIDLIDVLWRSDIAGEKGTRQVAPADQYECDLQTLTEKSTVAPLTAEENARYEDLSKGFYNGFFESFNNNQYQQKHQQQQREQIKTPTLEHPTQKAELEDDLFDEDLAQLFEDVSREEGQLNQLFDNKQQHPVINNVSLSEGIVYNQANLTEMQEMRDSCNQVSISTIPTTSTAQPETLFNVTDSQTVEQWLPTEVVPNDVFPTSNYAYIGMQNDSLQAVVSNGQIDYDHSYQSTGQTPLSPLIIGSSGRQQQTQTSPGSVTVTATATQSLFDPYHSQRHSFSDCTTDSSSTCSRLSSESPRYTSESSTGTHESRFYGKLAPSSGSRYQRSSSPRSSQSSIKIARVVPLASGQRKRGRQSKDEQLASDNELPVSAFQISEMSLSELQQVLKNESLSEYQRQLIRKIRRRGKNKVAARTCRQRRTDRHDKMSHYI

[10] = molecular target: T6, DNA repair protein RAD52 homolog (Homo sapiens, UniProt P43351); format: functional, biochemical
T6 sequence (P43351 whole entry): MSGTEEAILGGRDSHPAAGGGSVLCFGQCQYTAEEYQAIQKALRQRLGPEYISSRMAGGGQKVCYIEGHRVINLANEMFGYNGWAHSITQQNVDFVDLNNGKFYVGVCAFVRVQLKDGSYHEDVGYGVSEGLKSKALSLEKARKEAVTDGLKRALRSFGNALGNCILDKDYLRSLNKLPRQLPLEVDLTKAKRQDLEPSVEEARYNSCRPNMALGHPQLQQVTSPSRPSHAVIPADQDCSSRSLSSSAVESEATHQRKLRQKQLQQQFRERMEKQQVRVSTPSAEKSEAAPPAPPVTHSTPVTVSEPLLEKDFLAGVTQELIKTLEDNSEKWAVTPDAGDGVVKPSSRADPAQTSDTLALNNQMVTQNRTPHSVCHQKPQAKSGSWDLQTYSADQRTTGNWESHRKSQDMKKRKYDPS

[11] = molecular target: Delta-type opioid receptor (Homo sapiens, UniProt P41143); test: Counterscreen for agonists of heterodimerization of the mu 1 (OPRM1) and delta 1 (OPRD1) opioid receptors: Luminescence-based cell-based high throughput dose response assay to identify agonists of OPRD1 homodimerization. [Related pubchem assays (depositor defined):AID504326, AID504355, AID504692, AID504904, AID504905]; format: functional
Mu-type opioid receptor = Mu-type opioid receptor (Homo sapiens, UniProt P35372); test: Counterscreen for agonists of heterodimerization of the mu 1 (OPRM1) and delta 1 (OPRD1) opioid receptors: Luminescence-based cell-based high throughput dose response assay to identify agonists of OPRM1 homodimerization.; format: functional;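 note: U2OS cells expressing OPRM1 and beta-arrestin as split beta-galactosidase partners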
[12] = molecular target: 5-hydroxytryptamine receptor 5A (Homo sapiens, UniProt P47898); test: Counterscreen for agonists of OPRM1-OPRD1 heterodimerization: luminescence-based cell-based high throughput dose response assay to identify agonists of 5-hydroxytryptamine (serotonin) 5A receptor (HTR5A). [Related pubchem assays (depositor defined):AID504326, AID504355, AID504692, AID504904, AID504905]; format: functional
Cysteine protease ATG4B = Cysteine protease ATG4B (Homo sapiens, UniProt Q9Y4P1); format: functional;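 note: Fluorescence-based dose-response confirmation assay measuring inhibition of ATG4B activity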
Phospholipase A2 = Phospholipase A2 (Homo sapiens, UniProt P04054); format: functional;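 note: confirmatory dose-response counterscreen on phospholipase A2, testing hits that came from an ultra-high-throughput screen for ATG4B inhibitors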
Candida albicans = test: growth inhibition of resistant C. albicans, dose response, CaCi-8 strain, fluconazole, dry powder, set 4 (AID 488950); format: functional, organism-based

Cysteine protease ATG4B, sequence (Q9Y4P1 whole entry): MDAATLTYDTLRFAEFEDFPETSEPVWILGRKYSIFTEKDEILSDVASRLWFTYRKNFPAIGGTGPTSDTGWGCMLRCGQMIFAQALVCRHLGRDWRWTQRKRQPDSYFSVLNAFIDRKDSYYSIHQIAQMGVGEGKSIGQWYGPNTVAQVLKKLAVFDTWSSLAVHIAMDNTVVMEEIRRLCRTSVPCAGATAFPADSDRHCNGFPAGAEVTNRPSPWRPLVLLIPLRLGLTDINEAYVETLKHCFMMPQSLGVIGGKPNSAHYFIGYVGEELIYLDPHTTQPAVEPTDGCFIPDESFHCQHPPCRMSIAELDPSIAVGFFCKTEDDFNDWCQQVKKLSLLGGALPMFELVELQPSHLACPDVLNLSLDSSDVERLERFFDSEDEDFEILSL
Phospholipase A2, sequence (P04054 whole entry): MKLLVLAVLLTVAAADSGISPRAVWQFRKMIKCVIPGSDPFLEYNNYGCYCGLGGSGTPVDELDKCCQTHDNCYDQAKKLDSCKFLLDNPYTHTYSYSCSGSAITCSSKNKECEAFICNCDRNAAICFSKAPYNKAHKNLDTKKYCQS
5-hydroxytryptamine receptor 5A, sequence (P47898 whole entry): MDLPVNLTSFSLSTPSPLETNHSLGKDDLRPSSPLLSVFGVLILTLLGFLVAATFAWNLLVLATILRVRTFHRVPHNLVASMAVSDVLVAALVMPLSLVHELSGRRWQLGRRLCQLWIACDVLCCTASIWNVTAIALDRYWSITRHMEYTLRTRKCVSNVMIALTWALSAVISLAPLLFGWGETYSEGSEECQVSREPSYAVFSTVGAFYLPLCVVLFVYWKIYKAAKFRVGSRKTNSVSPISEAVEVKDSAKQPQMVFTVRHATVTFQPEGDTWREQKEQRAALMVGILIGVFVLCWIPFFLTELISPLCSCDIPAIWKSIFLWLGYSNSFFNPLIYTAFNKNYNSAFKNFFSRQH
Mu-type opioid receptor, sequence (P35372 whole entry): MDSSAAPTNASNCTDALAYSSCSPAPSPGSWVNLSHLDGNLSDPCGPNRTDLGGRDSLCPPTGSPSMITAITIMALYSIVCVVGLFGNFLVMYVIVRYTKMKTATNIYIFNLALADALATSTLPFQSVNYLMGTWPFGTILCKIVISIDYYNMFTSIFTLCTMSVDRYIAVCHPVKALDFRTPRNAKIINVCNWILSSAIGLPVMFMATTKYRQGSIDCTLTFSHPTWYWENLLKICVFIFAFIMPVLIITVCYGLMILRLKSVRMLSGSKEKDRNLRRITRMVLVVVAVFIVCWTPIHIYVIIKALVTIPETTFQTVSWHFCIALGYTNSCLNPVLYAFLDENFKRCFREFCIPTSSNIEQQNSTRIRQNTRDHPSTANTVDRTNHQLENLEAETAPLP
Delta-type opioid receptor, sequence (P41143 whole entry): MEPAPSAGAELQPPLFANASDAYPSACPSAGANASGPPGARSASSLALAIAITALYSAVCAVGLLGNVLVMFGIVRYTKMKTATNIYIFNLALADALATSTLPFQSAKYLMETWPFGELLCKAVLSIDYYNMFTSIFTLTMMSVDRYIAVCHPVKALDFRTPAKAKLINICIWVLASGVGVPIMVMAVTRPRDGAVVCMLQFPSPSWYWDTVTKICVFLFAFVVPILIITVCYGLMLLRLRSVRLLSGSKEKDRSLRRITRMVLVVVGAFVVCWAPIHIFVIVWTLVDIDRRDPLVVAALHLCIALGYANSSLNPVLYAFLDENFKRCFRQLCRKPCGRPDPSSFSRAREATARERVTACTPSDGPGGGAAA
Glucose-6-phosphate 1-dehydrogenase, sequence (P11413 whole entry): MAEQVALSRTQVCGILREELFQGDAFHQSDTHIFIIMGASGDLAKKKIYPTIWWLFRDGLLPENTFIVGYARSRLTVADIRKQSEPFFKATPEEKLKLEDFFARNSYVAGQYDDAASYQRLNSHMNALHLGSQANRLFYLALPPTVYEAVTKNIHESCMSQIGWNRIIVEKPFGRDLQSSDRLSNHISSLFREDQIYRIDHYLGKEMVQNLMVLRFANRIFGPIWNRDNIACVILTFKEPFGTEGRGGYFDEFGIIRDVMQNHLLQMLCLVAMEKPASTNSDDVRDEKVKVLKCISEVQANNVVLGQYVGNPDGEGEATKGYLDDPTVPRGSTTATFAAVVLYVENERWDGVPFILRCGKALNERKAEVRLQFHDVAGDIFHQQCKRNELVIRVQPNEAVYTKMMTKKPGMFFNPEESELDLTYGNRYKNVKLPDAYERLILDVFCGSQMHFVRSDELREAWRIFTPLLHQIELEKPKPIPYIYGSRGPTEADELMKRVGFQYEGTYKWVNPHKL

SMILES: COc1c(N2CCN(C(S)=NC3CC4CCC3C4)C(C)C2)c(F)cc2c(=O)c(C(=O)O)cn(C3CC3)c12 (stereo unspecified)
CC50 [1]: 9.91 µM (active)
EC50 [2]: 5.85 µM (active)
EC50 [3]: 17 µM (active)
EC50 (Streptococcus): 3.77 µM (active)
AC50 (Escherichia coli): 2.64 µM (active)

SMILES: Cc1ccc2nc(-c3ccc(NC(S)=NC4CC(C)(C)NC(C)(C)C4)cc3)sc2c1
EC50 [4]: > 150 µM (inactive)
EC50 [5]: > 38 µM (not active)
IC50 [6]: > 80 µM (inactive)
IC50 (Bcl-2-related protein A1): > 20 µM (inactive)
IC50 [7]: 16.8 µM (active)
IC50 [8]: > 20 µM (inactive)
IC50 [9]: 43.6 µM (active)
IC50 (Protein skinhead-1): 35.1 µM (active)
AC50 [10]: 4.95 µM (active)

EC50 [11]: > 92.5 µM (inactive)
EC50 (Mu-type opioid receptor): > 92.5 µM (inactive)
EC50 [12]: > 92.5 µM (inactive)
SMILES: COc1ccccc1CN1CCN(C(CC(C)C)c2nnnn2Cc2cccs2)CC1 (stereo unspecified)

IC50 (Cysteine protease ATG4B): 14.3 µM (active)
IC50 (Phospholipase A2): 12.3 µM (active)
SMILES: O=C(O)CC/C(=C\c1ccc(Cl)c([N+](=O)[O-])c1)c1nc2ccccc2s1

SMILES: CCCCNC(=O)N1CCN(c2ccnc3cc(Cl)ccc23)CC1
AC50 (Candida albicans): 23 µM (active)

IC50 (Cysteine protease ATG4B): 14.8 µM (active)
IC50 (Phospholipase A2): 0.605 µM (active)
SMILES: O=C1OC(c2cccs2)=N/C1=C\c1ccc(-c2cccc(Cl)c2)o1

EC50 [11]: > 92.5 µM (inactive)
EC50 (Mu-type opioid receptor): > 92.5 µM (inactive)
EC50 [12]: > 92.5 µM (inactive)
SMILES: CN(C)C(CNC(=O)c1ccc2ccccc2c1)c1ccco1 (stereo unspecified)

SMILES: CCN(CC)S(=O)(=O)c1ccc(=O)n(CC(=O)N2Cc3ccccc3CC2C(N)=O)c1 (stereo unspecified)
AC50 (Escherichia coli): 116 µM (active)
